Laboratory results published in the supplement of paper PMC8960247.
Where a name gives a salt, the structure may show the parent alone. ± gives the standard error.

Assays:
[1] = test system: 621-102 (TSC2-deficient); assay: relative viability vs DMSO; higher = less cytotoxic; settings: serum: 10% FBS, 72 h
[2] = test system: 621-103 (TSC2-rescued); assay: as above; settings: serum: 10% FBS, 72 h
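Also: immortalized renal angiomyolipoma cells stably carrying empty vector or TSC2, dosed in 384-well plates in DMEM, viability normalized to vehicle-treated wells within each plate.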

SMILES | relative viability ([1]; 0.0001 µM) | relative viability ([1]; 0.001 µM) | relative viability ([1]; 0.01 µM) | relative viability ([1]; 0.1 µM) | relative viability ([1]; 1 µM) | relative viability ([1]; 10 µM) | relative viability ([2]; 0.0001 µM) | relative viability ([2]; 0.001 µM) | relative viability ([2]; 0.01 µM) | relative viability ([2]; 0.1 µM) | relative viability ([2]; 1 µM) | relative viability ([2]; 10 µM)
CN1CCc2c(c3ccccc3n2Cc2ccc(C(=O)NO)cc2)C1 [Tubastatin A HCl] | 73.7 ± 1.7% | 91.6 ± 2.8% | 85.5 ± 1% | 90.1 ± 3.6% | 82.6 ± 2.3% | 75.4 ± 2.7% | 101 ± 2.1% | 102 ± 2.5% | 101 ± 3.4% | 100 ± 2.9% | 98.48 ± 0.54% | 90.6 ± 1.5%
O=c1cc(-c2ccc(O)cc2)oc2cc(O)cc(O)c12 [Apigenin] | 90.7 ± 0.81% | 105 ± 2.6% | 110 ± 2.2% | 113 ± 5.3% | 111 ± 2.9% | 112 ± 5.7% | 112 ± 4.7% | 128 ± 1.4% | 108.9 ± 0.2% | 115 ± 4.3% | 111 ± 4.9% | 125 ± 4%
Cn1cc(-c2ccc3nnc(C(F)(F)c4ccc5ncccc5c4)n3n2)cn1 | 101 ± 1.6% | 100.8 ± 0.26% | 99.2 ± 1.3% | 95.7 ± 1.9% | 96.8 ± 4.5% | 98.19 ± 0.64% | 102 ± 1.7% | 101 ± 1.4% | 100.6 ± 0.28% | 100.3 ± 0.23% | 100.3 ± 0.95% | 98.25 ± 0.26%
CNC(=O)c1cc(Oc2ccc(NC(=O)Nc3ccc(Cl)c(C(F)(F)F)c3)cc2)ccn1 [Sorafenib Tosylate] | 90.38 ± 0.54% | 99.7 ± 5.4% | 113 ± 6.4% | 110.1 ± 0.44% | 127 ± 1.7% | 82.2 ± 13% | 97.89 ± 0.32% | 102 ± 2% | 106 ± 1.2% | 102 ± 1.9% | 102 ± 1.6% | 44.5 ± 3.4%
Cn1cnc2c(F)c(Nc3ccc(Br)cc3Cl)c(C(=O)NOCCO)cc21 [AZD6244 (Selumetinib)] | 84 ± 9.2% | 89.89 ± 0.22% | 96.8 ± 1.1% | 98.9 ± 5.4% | 84.7 ± 1.2% | 88.21 ± 0.5% | 101.6 ± 0.39% | 100.1 ± 0.89% | 105.2 ± 1% | 106 ± 1.1% | 104 ± 2.8% | 89 ± 2.5%
NC1=N[C@@]2(c3cc(NC(=O)c4ccc(F)cn4)ccc3F)COC[C@H]2CS1 | 105 ± 1.8% | 105 ± 1.3% | 105 ± 0.55% | 100 ± 1.3% | 99.9 ± 2% | 96.4 ± 1.9% | 101 ± 4.3% | 101 ± 3.9% | 100 ± 1.9% | 101 ± 2% | 99.2 ± 2.8% | 93.7 ± 1.1%
CNC(=C[N+](=O)[O-])NCCSCc1csc(CN(C)C)n1 [Nizatidine] | 102 ± 3% | 100.7 ± 0.45% | 101 ± 2.1% | 95.8 ± 1.8% | 106 ± 3.8% | 103 ± 1.6% | 102.5 ± 0.9% | 92.2 ± 3.2% | 101 ± 4.2% | 97.2 ± 1.6% | 102 ± 3.1% | 98.5 ± 4.4%
Cc1ccc(F)c(NC(=O)Nc2ccc(-c3cccc4[nH]nc(N)c34)cc2)c1 [ABT-869] | 106 ± 3% | 100.3 ± 0.6% | 108 ± 1.6% | 108 ± 5.5% | 107 ± 2.2% | 86 ± 1.5% | 97.84 ± 0.17% | 100 ± 1.3% | 108 ± 6.2% | 107 ± 3.4% | 109.7 ± 0.82% | 80.4 ± 3.2%
Cc1ccc(Nc2nccc(N(C)c3ccc4c(C)n(C)nc4c3)n2)cc1S(N)(=O)=O [Pazopanib Hydrochloride] | 78.9 ± 0.89% | 104 ± 5.5% | 110 ± 5.6% | 114.4 ± 0.52% | 104.7 ± 0.87% | 82.2 ± 1.6% | 92.7 ± 4.2% | 99.2 ± 3.9% | 102 ± 1.2% | 102.1 ± 1% | 100.8 ± 0.29% | 55.9 ± 1.2%
Nc1nc(Cl)nc2c1ncn2[C@H]1C[C@H](O)[C@@H](CO)O1 [Cladribine] | 106.2 ± 0.9% | 110 ± 1.8% | 113 ± 2.1% | 106.4 ± 0.98% | 97.8 ± 3.5% | 52.73 ± 0.19% | 101 ± 1.4% | 101 ± 2.1% | 105 ± 2.1% | 105 ± 2.4% | 60.3 ± 0.92% | 43.5 ± 0.46%
O=C(CCCCCCC(=O)Nc1ccccc1)NO [Vorinostat] | 117 ± 3.2% | 120 ± 2.4% | 114 ± 2.5% | 106 ± 1.3% | 91.54 ± 0.85% | 63.7 ± 1.4% | 101 ± 2.2% | 98.74 ± 0.07% | 98.14 ± 0.97% | 97.94 ± 0.86% | 97.19 ± 0.86% | 26.6 ± 0.47%
CNC(=C[N+](=O)[O-])NCCSCc1ccc(CN(C)C)o1 [Ranitidine HCl] | 103 ± 8.4% | 104 ± 0.46% | 101 ± 2.8% | 97.8 ± 2.7% | 105 ± 2.8% | 97.6 ± 0.51% | 107 ± 3.1% | 106 ± 3.6% | 103.5 ± 0.96% | 106 ± 1.3% | 103 ± 3% | 100.1 ± 0.51%
CC(=O)O[C@H]1CC[C@@]2(C)C(=CC[C@@H]3[C@@H]2CC[C@]2(C)C(c4cccnc4)=CC[C@@H]32)C1 [Abiraterone Acetate (CB7630)] | 103 ± 1.5% | 108 ± 7% | 102 ± 0.7% | 97.3 ± 2.7% | 103 ± 1.2% | 94.6 ± 2.4% | 106 ± 5.8% | 104 ± 3.1% | 111 ± 2.3% | 111 ± 5.3% | 105 ± 2% | 102 ± 3.2%
CC(C)c1nc(CN(C)C(=O)N[C@H](C(=O)N[C@@H](Cc2ccccc2)C[C@H](O)[C@H](Cc2ccccc2)NC(=O)OCc2cncs2)C(C)C)cs1 [Ritonavir] | 106.1 ± 0.46% | 98.8 ± 4.8% | 105 ± 4.1% | 104 ± 1.4% | 100 ± 1.4% | 102 ± 2.6% | 99.5 ± 0.28% | 99.3 ± 1.5% | 98.8 ± 0.17% | 97.77 ± 0.48% | 97.6 ± 2.4% | 98.28 ± 0.37%
Cc1ccc(NC(=O)c2cccc(N(C)C)c2)cc1NC(=O)c1ccc(O)cc1 | 90.2 ± 2% | 102 ± 2.6% | 100.2 ± 0.28% | 109 ± 5% | 109 ± 5.4% | 92.1 ± 6% | 104.9 ± 0.89% | 102 ± 4% | 101 ± 3.8% | 101 ± 4.5% | 94.6 ± 5% | 98.9 ± 1.4%
CN1[C@@H]2C[C@@H](OC(=O)[C@H](CO)c3ccccc3)C[C@H]1[C@@H]1O[C@@H]12 [Scopolamine hydrobromide] | 127 ± 2.7% | 119 ± 5.9% | 120 ± 2.6% | 112 ± 1.9% | 115.3 ± 1.1% | 108 ± 3.8% | 102 ± 4% | 99.3 ± 2% | 96.3 ± 2.5% | 99.3 ± 1.4% | 100 ± 2.1% | 102 ± 1.5%
CCOc1ccccc1OCCN[C@H](C)Cc1ccc(OC)c(S(N)(=O)=O)c1 [Tamsulosin HCl] | 104 ± 3.8% | 99.7 ± 2.3% | 99.5 ± 2.2% | 102 ± 5% | 97 ± 3.9% | 98.4 ± 4% | 107 ± 5.6% | 104 ± 4.7% | 105 ± 2% | 103 ± 2.4% | 96.4 ± 7% | 98.4 ± 2.6%
CN1CCCC(n2nc(Cc3ccc(Cl)cc3)c3ccccc3c2=O)CC1 (stereo not drawn) [Azelastine HCl (Astelin)] | 111 ± 0.65% | 114 ± 4.5% | 103 ± 4.9% | 109 ± 1.6% | 106.8 ± 0.17% | 90.43 ± 0.82% | 101 ± 3.8% | 92.3 ± 4.6% | 98.15 ± 0.86% | 100 ± 6.5% | 102 ± 2.2% | 68.28 ± 0.32%
CC(C)[C@H](O)C(=O)N[C@@H](C)C(=O)N[C@@H]1C(=O)N(C)CCc2ccccc21 [Semagacestat] | 117 ± 2.5% | 118 ± 4.2% | 121.4 ± 0.8% | 117 ± 2% | 118 ± 1.6% | 116 ± 2.2% | 102 ± 2.3% | 98.71 ± 0.85% | 101 ± 1.2% | 102.5 ± 0.4% | 102 ± 1.2% | 103 ± 1.7%
